Measurements published in paper PMC12753884, “Naringenin targets FimZ to regulate type I fimbriae and reduce the virulence of Salmonella” (Frontiers in Cellular and Infection Microbiology, 2025).

Columns and labels:
Type in all cases: binding
FimZ [1] = biological target: T1, FimZ (Salmonella enterica, UniProt P26319); assay: SPR (Biacore X100, His-antibody capture on CM5 chip); EMSA support
T1 construct: Flag-FimZ-His, whole fimZ fragment of SL1344 in pET-28a

FimZ [2] = biological target: T2, FimZ (Salmonella enterica, UniProt P26319, T138A); assay: SPR (Biacore X100, His-antibody capture on CM5 chip)
T2 construct: Flag-FimZ-His mutant
T2 sequence (P26319 1-210 T138A): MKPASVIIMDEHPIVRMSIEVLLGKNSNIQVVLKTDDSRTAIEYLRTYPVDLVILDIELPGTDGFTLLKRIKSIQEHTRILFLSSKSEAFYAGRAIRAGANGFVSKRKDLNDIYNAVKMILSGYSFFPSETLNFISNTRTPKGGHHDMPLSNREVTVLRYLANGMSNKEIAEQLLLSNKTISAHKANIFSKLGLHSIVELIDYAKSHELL

FimZ [3] = biological target: T3, FimZ (Salmonella enterica, UniProt P26319, I135A); assay: as above
T3 construct: Flag-FimZ-His mutant
T3 sequence (P26319 1-210 I135A): T2 sequence (P26319 1-210 T138A)

O=C1C[C@@H](c2ccc(O)cc2)Oc2cc(O)cc(O)c21 [Nar, naringenin] was tested. Which Kd (FimZ [1]) did it give?
Its Kd is 33.9 µM.

What about the Kd (FimZ [2]) of the same compound?
Its Kd is 412 µM.

And the Kd (FimZ [3])?
The Kd was 152 µM.
